From US20170247459A1, “COMBINATION THERAPY OF ANTIBODIES AGAINST HUMAN CSF-1R AND USES THEREOF” (HOFFMANN-LA ROCHE INC., priority 2012, published 2017)

Experiments:
[1] = tested on: MC38 colon carcinoma; test: Tumor growth inhibition with chemotherapy or cancer immunotherapy combinations in subcutaneous syngeneic MC38 colon carcinoma model; format: in vivo, C57BL/6N mice; conditions: for TCR (day 21) / TGI (day 21): compared to control antibody; for TGI (day 21): antibody 30 mg/kg i.p. weekly; for Median time to progression TV > 700 mm3: mouse, in vivo
Description: Inhibition of Tumor Growth Under Treatment with Anti-CSF-1R Monoclonal Antibody in Combination with Chemotherapy or Cancer Immunotherapy in Subcutaneous Syngeneic MC38 Colon Carcinoma Models

[2] = tested on: primary tumor growth; test: Docetaxel combined with anti-mouse CSF-1R antibody (separate experiment); format: in vivo
Procedure: Docetaxel was administered 3 times weekly as 1 cycle followed by 3 weeks drug holiday.

Compound | TCR (day 21) [1] | TGI (day 21) [1] [%] | TGI (day 21) ([1]; listed as IL2) [%] | Median time to progression TV > 700 mm3 [1] | npTCR ([2]; after 2 cycles of docetaxel) | TGI ([2]; after 2 cycles of docetaxel, docetaxel 3 mg/kg i.v., antibody 30 mg/kg i.p. weekly) [%] | median survival time ([2]; in vivo) [days]
Proleukin: IL-2 (Proleukin, Novartis) | 0.53 | 47 | 47 | 21 |  |  | 
O=C1[O][Pt]2([NH][C@@H]3CCCC[C@H]3[NH]2)[O]C1=O [Oxaliplatin] | 0.54 | 46 |  | 21 |  |  | 
CC(=O)O[C@@]12CO[C@@H]1C[C@H](O)[C@@]1(C)C(=O)[C@H](O)C3=C(C)[C@@H](OC(=O)[C@H](O)[C@@H](NC(=O)OC(C)(C)C)c4ccccc4)C[C@@](O)([C@@H](OC(=O)c4ccccc4)[C@H]21)C3(C)C [docetaxel] |  |  |  |  | 0.55 | 75 | 154
